The subject of this assay is methicillin-resistant Staphylococcus aureus (MRSA). The assay can be described thus: In vitro bactericidal test on MRSA isolates (viable CFU/mL after 24 hours of treatment). The following applies: average across three MRSA isolates.

The values that follow come from patent publication US12186293B2, “Therapeutic methods using decanoic acid and amino acids” (Wintermute Biomedical, Inc., priority 2018, dated 2025).

Description: Note that efficacy is reported in terms of the viable bacterial concentration (in CFU/mL) remaining after 24 hours of treatment with the drug product (in compliance with CLSI guidelines).
In this example, bacteria (MRSA isolates) are put onto fresh plates and allowed to grow for 30 hours. A suspension inoculum is made from the plates (e.g., a 1 McFarland solution in sterile water), from which the turbidity may be optically read. A standard inoculum may then be cultured in media and 100 μL of that solution combined with 100 μL of drug product and grown at various dilutions for 16-20 hrs. Duplicates may then be examined (e.g., following pelleting at 7,000 RPM for 15 min, resuspended in PBS and serial dilutions plated and grown for 24 hrs.). Duplicate plates at multiple dilutions may then be imaged and colonies counted.

With `CCCCCCCCCCCCCCCCO` [CA, cetyl alcohol], the “effect of increasing amounts of CA in the UCA and LARG composition” value is “decrease in efficacy”.
